Measured values as given in ChEMBL document CHEMBL5344418, “Recent developments in antimalarial activities of 4-aminoquinoline derivatives” (Eur J Med Chem, 2023).

Key:
Plasmodium falciparum [1] = test: Antiplasmodial activity against chloroquine-resistant Plasmodium falciparum W2 assessed as parasitic growth inhibition incubated for 72 hrs by SYBR Green staining based fluorescence analysis; type: functional, organism-based; settings: W2, 72 h
Plasmodium falciparum [2] = test: Antiplasmodial activity against chloroquine-sensitive Plasmodium falciparum 3D7 assessed as parasitic growth inhibition incubated for 72 hrs by SYBR Green staining based fluorescence analysis; type: functional, organism-based; settings: 3D7, 72 h
Plasmodium falciparum [3] = test: Antimalarial activity against Plasmodium falciparum Dd2 assessed as reduction in parasitic growth incubated for 48 hrs by SYBR green assay; type: functional, organism-based; settings: Dd2, 48 h
[4] = Cytotoxicity against African green monkey Vero cells assessed as reduction in cell viability incubated for 24 hrs by fluorescence based analysis; type: toxicity; settings: African green monkey (Chlorocebus sabaeus)
Plasmodium falciparum [5] = test: Antimalarial activity against chloroquine-resistant Plasmodium falciparum W2 assessed as growth inhibition incubated for 48 hrs by flow cytometry based analysis; type: functional, organism-based; settings: W2, 48 h
[6] = Cytotoxicity against African green monkey Vero cells; type: toxicity, cell-based; settings: chlorocebus sabaeus
Plasmodium falciparum [7] = test: Antiplasmodial activity against Plasmodium falciparum 3D7; type: functional, organism-based

Work on `O=Cc1cc(OCc2cn(CCCNc3ccnc4cc(Cl)ccc34)nn2)ccc1Br` yielded an IC50 (Plasmodium falciparum [1]) of 7.09 µM and an IC50 (Plasmodium falciparum [2]) of 6.29 µM.

Work on `COc1ccc2nc(/C=C/c3ccc([N+](=O)[O-])cc3)cc(Nc3ccccc3)c2c1` yielded an IC50 (Plasmodium falciparum [3]) of 0.509 µM.

`O=C1c2ccc(N3CCCCC3)cc2C(=O)N1CCNc1ccnc2cc(Cl)ccc12` showed an IC50 at 24 h [4] of 28.8 µM and an IC50 (Plasmodium falciparum [5]) of 0.163 µM.

Work on `CC1(C)OB(c2ccc(OCc3cn(CCNc4ccnc5cc(Cl)ccc45)nn3)cc2C=O)OC1(C)C` yielded an IC50 (Plasmodium falciparum [1]) of 6.23 µM and an IC50 (Plasmodium falciparum [2]) of 7.37 µM.

`N=C(N=C(N)N)SCCCNc1ccnc2cc(C(F)(F)F)ccc12` showed a CC50 [6] of over 10.6 µM.

Work on `COc1ccc2nc(/C=C/c3cccs3)cc(NCCN(C)C)c2c1` yielded an IC50 (Plasmodium falciparum [3]) of 0.096 µM.

With `O=C1c2ccc(N3CCCCC3)cc2C(=O)N1CCCCCCNc1ccnc2cc(Cl)ccc12` the IC50 at 24 h [4] was 25.5 µM and the IC50 (Plasmodium falciparum [5]) was 0.012 µM.

Molecule `O=Cc1cc(OCc2cn(CCNc3ccnc4cc(Cl)ccc34)nn2)ccc1Br` has an IC50 (Plasmodium falciparum [1]) of 5.07 µM and an IC50 (Plasmodium falciparum [2]) of 4.3 µM.

In the case of `COc1ccc2nc(/C=C/c3ccc([N+](=O)[O-])cc3)cc(N3CCN(CCO)CC3)c2c1`, the IC50 (Plasmodium falciparum [3]) is reported as 0.672 µM.

Work on `COc1ccc2nc(/C=C/c3ccc([N+](=O)[O-])cc3)cc(NC3CCCCC3)c2c1` yielded an IC50 (Plasmodium falciparum [3]) of 0.171 µM.

In the case of `N=C(N=C(N)N)SCCNc1ccnc2cc(C(F)(F)F)ccc12`, the CC50 [6] is reported as over 10.9 µM.

In the case of `O=C1c2ccc(N3CCOCC3)cc2C(=O)N1CCNc1ccnc2cc(Cl)ccc12`, the IC50 at 24 h [4] is reported as 28.6 µM and the IC50 (Plasmodium falciparum [5]) is reported as 0.37 µM.

With `COc1ccc2nc(/C=C/c3ccc([N+](=O)[O-])cc3)cc(N3CCCCC3)c2c1` the IC50 (Plasmodium falciparum [3]) was over 10 µM.

`O=C1c2cccc(N3CCOCC3)c2C(=O)N1CCCNc1ccnc2cc(Cl)ccc12` showed an IC50 at 24 h [4] of 222 µM and an IC50 (Plasmodium falciparum [5]) of 0.276 µM.

`OB1OCc2ccc(OCc3cn(-c4ccnc5ccc(Cl)cc45)nn3)cc21` gave an IC50 (Plasmodium falciparum [1]) of 5.22 µM and an IC50 (Plasmodium falciparum [2]) of 4.87 µM.

`Cc1ccc(C(CCN(C)C)NCC(C)Nc2ccnc3cc(Cl)ccc23)cc1` (centres undefined) showed an IC50 (Plasmodium falciparum [7]) of 5.17 µM.

Molecule `CCN(CC)CCC(NCC(C)Nc1ccnc2cc(Cl)ccc12)c1ccccc1` (centres undefined) has an IC50 (Plasmodium falciparum [7]) of 3.84 µM.

Work on `CC(CNC(CCN1CCOCC1)c1ccccc1)Nc1ccnc2cc(Cl)ccc12` (centres undefined) yielded an IC50 (Plasmodium falciparum [7]) of 2.94 µM.

Work on `COc1ccc(C(CCN2CCOCC2)NCC(C)Nc2ccnc3cc(Cl)ccc23)cc1` (centres undefined) yielded an IC50 (Plasmodium falciparum [7]) of 3.89 µM.

For `N=C(N=C(N)N)SCCNc1ccnc2cc(Cl)ccc12`, the CC50 [6] was over 11.8 µM.

In the case of `O=Cc1cc(OCc2cn(-c3ccnc4ccc(Cl)cc34)nn2)ccc1Br`, the IC50 (Plasmodium falciparum [1]) is reported as 7.39 µM and the IC50 (Plasmodium falciparum [2]) is reported as 6.19 µM.

In the case of `COc1ccc2nc(/C=C/c3ccc(Br)cc3)cc(NCCN(C)C)c2c1`, the IC50 (Plasmodium falciparum [3]) is reported as 0.04 µM.

`N=C(N=C(N)N)SCCCCNc1ccnc2cc(Cl)ccc12` showed a CC50 [6] of over 11 µM.

With `O=Cc1cc(OCc2cn(CCN3CCN(c4ccnc5cc(Cl)ccc45)CC3)nn2)ccc1Br` the IC50 (Plasmodium falciparum [1]) was 8.26 µM and the IC50 (Plasmodium falciparum [2]) was 8.34 µM.

Work on `Cc1ccc(C(CCN(Cc2ccccc2)Cc2ccccc2)NCC(C)Nc2ccnc3cc(Cl)ccc23)cc1` (centres undefined) yielded an IC50 (Plasmodium falciparum [7]) of 2.59 µM.

`CCN(CC)CCC(NCC(C)Nc1ccnc2cc(Cl)ccc12)c1ccc(OC)cc1` (centres undefined) gave an IC50 (Plasmodium falciparum [7]) of 2.41 µM.

In the case of `O=C1c2cccc(N3CCCCC3)c2C(=O)N1CCCNc1ccnc2cc(Cl)ccc12`, the IC50 at 24 h [4] is reported as 55.8 µM and the IC50 (Plasmodium falciparum [5]) is reported as 0.162 µM.

With `O=C1c2cccc(N3CCOCC3)c2C(=O)N1CCNc1ccnc2cc(Cl)ccc12` the IC50 at 24 h [4] was 28.6 µM and the IC50 (Plasmodium falciparum [5]) was 0.18 µM.

For `O=C1c2cccc(N3CCCCC3)c2C(=O)N1CCNc1ccnc2cc(Cl)ccc12`, the IC50 at 24 h [4] was 28.8 µM and the IC50 (Plasmodium falciparum [5]) was 0.158 µM.

Molecule `COc1ccc(C(CCN(C)C)NCC(C)Nc2ccnc3cc(Cl)ccc23)cc1` (centres undefined) has an IC50 (Plasmodium falciparum [7]) of 8.25 µM.

For `CCc1nc(N)nc(N)c1-c1ccc(Cl)cc1` [PYRIMETHAMINE], the CC50 [6] was 18.1 µM.

For `CC(CNC(CCN(C)C)c1ccccc1)Nc1ccnc2cc(Cl)ccc12` (centres undefined), the IC50 (Plasmodium falciparum [7]) was 3.43 µM.

In the case of `O=C1c2ccc(N3CCOCC3)cc2C(=O)N1CCCNc1ccnc2cc(Cl)ccc12`, the IC50 at 24 h [4] is reported as 222 µM and the IC50 (Plasmodium falciparum [5]) is reported as 0.118 µM.

`CC1(C)OB(c2ccc(OCc3cn(CCCNc4ccnc5cc(Cl)ccc45)nn3)cc2C=O)OC1(C)C` gave an IC50 (Plasmodium falciparum [1]) of 4.64 µM and an IC50 (Plasmodium falciparum [2]) of 5.18 µM.

`CC1(C)OB(c2ccc(OCc3cn(-c4ccnc5ccc(Cl)cc45)nn3)cc2C=O)OC1(C)C` showed an IC50 (Plasmodium falciparum [1]) of 6.19 µM and an IC50 (Plasmodium falciparum [2]) of 6.49 µM.

Work on `O=C1c2ccc(N3CCCCC3)cc2C(=O)N1CCCNc1ccnc2cc(Cl)ccc12` yielded an IC50 at 24 h [4] of 55.8 µM and an IC50 (Plasmodium falciparum [5]) of 0.176 µM.

`N=C(N=C(N)N)SCCCCNc1ccnc2cc(C(F)(F)F)ccc12` gave a CC50 [6] of over 10.2 µM.
